Results: patent US20100099118A1, “METHODS OF DETERMINING TOTAL PON1 LEVEL” (priority 2007, published 2010)
“And” between values parts separate entries of the source, which are not always exact repeats. Equal entries are not always repeated.

Key:
serum PON1 [1] = biological target: T1, serum PON1 (Homo sapiens, UniProt P27169); test: Lactonase activity in sera measured with TBBL; type: biochemical; details: QQ sera (n = 34); 0.25 mM TBBL; mean and S.D.
T1 construct: The samples were collected from 54 healthy individuals at Rambam Medical Center; from tissue; host or cells: human serum from 54 healthy individuals
Experimental: (§1) Lactonase Activity in Sera: Human sera were kindly provided by Michael Aviram. The samples were collected from 54 healthy individuals at Rambam Medical Center (Haifa, Israel) with the approval of the institute's Helsinki committee. Phenotyping sera for the PON1-192R/Q polymorphism was performed by a two-substrate method [Eckerson, H. W., et al., Am J Hum Genet. 35: 1126-1138] as previously described [Gaidukov, L., M. Rosenblat, M. Aviram, and D. S. Tawfik. 2006. J Lipid Res 47: 2492-2502]. Sera were divided into aliquots, supplemented with β-mercaptoethanol (5 mM) to prevent oxidation, and stored frozen at −20° C. All assays were performed in 96-well plates (Nunc), using an automated microplate reader (Bio-Tek; optical length ˜0.5 cm). Lactonase activity was measured in activity buffer (50 mM Tris pH 8.0, 1 mM CaCl2) containing 0.25 mM of 5-thiobutyl butyrolactone (TBBL) [Gaidukov, L., et al., 2006 J Lipid Res 47: 2492-2502] and 0.5 mM 5,5′-dithio-bis-2-nitrobenzoic acid (DTNB) by monitoring the absorbance at 412 nm in a final volume of 200 μl (ε=7,000 OD/M). The serum was diluted 400-fold in 100 μl of activity buffer complemented with 1 mM DTNB. DTNB was used from 100 mM stock in DMSO. TBBL was used from 250 mM stock in acetonitrile. TBBL was diluted 500-fold in activity buffer containing 2% acetonitrile. The reaction was initiated by adding 100 μl of TBBL (0.5 mM) to 100 μl of sera dilution. The final sera dilution was 800-fold. All the reaction mixtures contained a final 1% acetonitrile. Rates of spontaneous hydrolysis of TBBL in buffer were subtracted from all the measurements. Activities were expressed as U/ml (1 unit=1 μmol of TBBL hydrolyzed per minute per 1 ml of undiluted serum).

serum PON1 [2] = biological target: T2, serum PON1 (Homo sapiens, UniProt P27169, Q192R); test: Lactonase activity in sera measured with TBBL; type: biochemical; details: RR sera (n = 6); 0.25 mM TBBL; mean and S.D.
T2 construct: The samples were collected from 54 healthy individuals at Rambam Medical Center; from tissue; host or cells: human serum from 54 healthy individuals
Experimental: as §1

serum PON1 [3] = test: Lactonase activity in sera measured with TBBL; type: biochemical, human; details: for TBBL lactonase activity: 0.25 mM TBBL, mean and S.D.
Experimental: as §1

[4] = biological target: purified human PON1 polymorphs (Homo sapiens, UniProt P27169); test: Specific activity of purified human PON1 polymorphs for TBBL in absence of HDL; type: biochemical; details: 0.25 mM TBBL, same for both polymorphs
serum PON1 [5] = test: Paraoxonase activity in sera; type: biochemical; details: 54 human sera
Experimental: (§2) Phenyl acetate and paraoxonase activities were measured in 50 mM Tris pH 8.0 with 1 mM CaCl2. All activities were measured with 1 mM substrate, and expressed in Units/ml for phenyl acetate (1 μmol of phenyl acetate hydrolyzed per min per 1 ml undiluted serum) or mUnits/ml for other activities (1 nmol of substrate hydrolyzed per min per 1 ml undiluted serum). Horizontal bars represent the mean value for each group.
(§3) Paraoxonase and aryl esterase activity in sera: Paraoxonase activity in sera samples was measured in activity buffer with 1 mM paraoxon by monitoring the absorbance at 405 nm in a final volume of 200 μl (ε=10,515 OD/M). Arylesterase activity was measured in activity buffer with 1 mM phenyl acetate by monitoring the absorbance at 270 nm in a final volume of 200 μL (ε=7000D/M).

serum PON1 [6] = test: Arylesterase activity in sera (phenyl acetate); type: biochemical; details: 54 human sera
Experimental: as §2, §3

PON1 = details: from Gaidukov et al. 2006; cited from earlier work
[7] = 50 mM Tris pH 8.0, 1 mM substrate

T1 sequence (P27169 2-355): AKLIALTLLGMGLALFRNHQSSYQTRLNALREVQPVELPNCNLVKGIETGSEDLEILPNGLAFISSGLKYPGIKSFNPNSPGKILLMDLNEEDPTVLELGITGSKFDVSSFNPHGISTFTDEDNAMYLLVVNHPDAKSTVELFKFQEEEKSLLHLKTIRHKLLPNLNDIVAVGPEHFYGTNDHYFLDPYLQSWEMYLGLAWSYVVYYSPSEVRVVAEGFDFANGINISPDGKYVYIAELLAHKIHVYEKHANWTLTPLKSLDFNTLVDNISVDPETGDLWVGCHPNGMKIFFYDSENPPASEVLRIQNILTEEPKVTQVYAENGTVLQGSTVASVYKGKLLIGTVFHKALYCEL
T2 sequence (P27169 2-355 Q192R): as the sequence (P27169 2-355) above, with Q191R counted along it
Chain of purified human PON1 polymorphs (P27169 2-355): as the sequence (P27169 2-355) above

## CCCCSC1CCC(=O)O1 (centres unmarked) [TBBL, 5-thiobutyl butyrolactone]
Serum PON1 [1]
  TBBL lactonase activity: 3.5 Units/ml and 3.5 ± 1.6 Units/ml
Serum PON1 [2]
  TBBL lactonase activity: 5.4 Units/ml and 5.4 ± 2.7 Units/ml
Serum PON1 [3]; 54 human sera
  Variation of TBBLase activity between sera: 7 fold
Serum PON1 [3]; All sera (n = 54), μmol hydrolyzed per min per 1 ml undiluted serum
  TBBL lactonase activity: 3.8 ± 1.9 Units/ml
Serum PON1 [3]; RQ sera (n = 14)
  TBBL lactonase activity: 4.1 ± 2.1 Units/ml
Serum PON1 [3]; RR vs QQ sera
  Mean lactonase activity in RR sera relative to QQ sera: 1.5 fold
[4]
  Specific activity for TBBL: 1.0±0.1 μmol/min/mg of protein

## CCOP(=O)(OCC)Oc1ccc([N+](=O)[O-])cc1 [Paraoxon]
Serum PON1 [5]; [7]
  Mean ± S.D. of activity: 49.5 ± 36.6 Units activity
  Range of activity: 7.7-173.5 Units activity
Serum PON1 [5]
  Variation of activity between sera (fold, in brackets under range): (23) fold

## CC(=O)Oc1ccccc1 [Phenyl acetate]
Serum PON1 [6]; [7]
  Mean ± S.D. of activity: 48.2 ± 20.9 Units activity
  Range of activity: 15.6-100.6 Units activity
Serum PON1 [6]
  Variation of activity between sera (fold, in brackets under range): (6) fold
PON1
  Stimulation upon HDL binding: ca. 2 fold
